Source: US10752596B2, “Nitrogen-containing heteroaryl compound and pharmaceutical use thereof” (JAPAN TOBACCO INC., priority 2017, dated 2020)
Counter-ions that a name gives are not always drawn.

Biological target: human GLUT9 (Homo sapiens (Human), UniProt Q9NRM0)
Experiment: Evaluation of human GLUT9 inhibitory activity ([14C] uric acid uptake in human GLUT9 expressing HEK293T cells transduced with Uricase/Hyper)
Type: cell-based
Settings: human GLUT9 stably expressing HEK293T cells; for IC50: final 300 μM uric acid, 6 min, read-out: humans GLUT9 inhibitory activity (IC50 value (μM)); for inhibition at 10 µM: HEK-293T, 10 μM compound, read-out: GLUT9 inhibitory rate at 10 μM of compound
Experimental: A method for measuring GLUT9 inhibitory activity using human GLUT9 expressing cells transduced with Uricase/Hyper is shown hereinafter. GLUT9 inhibitory activity ([…]) of the test compound was calculated based on the intracellular uptake amount of labeled uric acid ([^14C] uric acid) transported by GLUT9.
1. Preparation of Human GLUT9 Expression Plasmid
Human GLUT9S coding region (NM_001001290.1) was amplified by PCR method using PrimeSTAR MAX DNA Polymerase (Takara Bio). The obtained PCR product was subjected to agarose gel electrophoresis, and the desired size of PCR product was purified by QIAquick Gel Extraction Kit (QIAGEN). Next, pEBMulti-Bsd vector (Wako Pure Chemical Industries, Ltd.) was subjected to digestion using restriction enzymes SalI and EcoR V, and linked to the PCR product containing GLUT9S by In-Fusion reaction using In-Fusion HD Cloning Kit (Takara Bio). XL10-Gold Competent Cells (Agilent Technologies) were transformed in In-Fusion reaction solution, and the obtained transfectants were cultured with shaking overnight in LB medium to which Blasticidin S HCl (Thermo Fisher Scientific) was added. Human GLUT9 expression plasmid DNA was prepared from the collected transfectants using EndoFree Plasmid Kit (Takara Bio).
2. Establish of Human GLUT9 Stably Expressing Cell
HEK293T cells (American Type Culture Collection, DS Pharma Biomedical) were seeded in a 6 well plate at 1×10^6 cells/well. Next day, human GLUT9 expression plasmid was transfected by using Lipofectamine 3000 Reagent (Thermo Fisher Scientific) as follows. Lipofectamine 3000 Reagent (5 μL) was diluted with Opti-MEM (125 μL, Thermo Fisher Scientific). Separately, plasmid DNA (2.5 μg) was diluted with Opti-MEM (125 μL), and P3000 Reagent (5 μL) was added thereto. The obtained solution was mixed with the previously obtained diluted solution, and the mixture was left stand at room temperature for 5 min, and added to the cells. Next day, the transfected cells were diluted and reseeded in a 6 well plate at 4×10^5 cells/well, and drug selection was performed in the presence of 30 μg/mL of Blasticidin S HCl, and thereby, Blasticidin-resistant human GLUT9 stably expressing cell line was established. Mock cells were prepared by introducing pEBMulti-Bsd vector into HEK293T cells in a similar manner.
3. Preparation of Uricase/Hyper Expression Plasmid
Uricase/Hyper expression plasmid was prepared by linking the coding regions of Aspergillus Flavus-derived uricase gene and pHyPer-Cyto vector (Evrogen) HyPer gene to the pEBMulti-Hyg vector (Wako Pure Chemical Industries, Ltd.) and then introducing it. The preparation method was performed by reference to Gout and Nucleic Acid Metabolism 2013, 37(2), 93-101, and seven repeated linker sequence of glycine-glycine-glycine-serine was prepared herein.
4. Preparation of Human GLUT9-Uricase/Hyper Coexpressing Cell
Human GLUT9 stably expressing cells were seeded at 3.6×10^7 cells per 225 cm^2 flask. Next day, Uricase/Hyper expression plasmid was transfected by using Lipofectamine 3000 Reagent as follows. Lipofectamine 3000 Reagent (40 μL) was diluted with Opti-MEM (750 μL). Separately, plasmid DNA (20 μg) was diluted with Opti-MEM (750 μL), and P3000 Reagent (40 μL) was added thereto. The obtained solution was mixed with the previously obtained diluted solution, and the mixture was left stand at room temperature for 5 min, and added to the cells. Next day, transfected cells were collected to prepare human GLUT9-Uricase/Hyper coexpressing cells.
5. Evaluation of GLUT9 Inhibitory Activity
Uricase/Hyper transiently-transfected human GLUT9 stably expressing cells or mock cells (blank) were seeded in a 96 well plate (Corning) at 1.6×10^5 cells/well, and cultured overnight at 37° C., 5% CO2. D-MEM/high glucose (Wako Pure Chemical Industries, Ltd.) containing 10% Fetal Bovine Serum (Lifetechnology) and 100 units/ml penicillin/100 μg/ml streptomycin (GIBCO) was used as a medium.

human GLUT9, sequence (Q9NRM0 other isoform, or with tags, fused parts or gaps): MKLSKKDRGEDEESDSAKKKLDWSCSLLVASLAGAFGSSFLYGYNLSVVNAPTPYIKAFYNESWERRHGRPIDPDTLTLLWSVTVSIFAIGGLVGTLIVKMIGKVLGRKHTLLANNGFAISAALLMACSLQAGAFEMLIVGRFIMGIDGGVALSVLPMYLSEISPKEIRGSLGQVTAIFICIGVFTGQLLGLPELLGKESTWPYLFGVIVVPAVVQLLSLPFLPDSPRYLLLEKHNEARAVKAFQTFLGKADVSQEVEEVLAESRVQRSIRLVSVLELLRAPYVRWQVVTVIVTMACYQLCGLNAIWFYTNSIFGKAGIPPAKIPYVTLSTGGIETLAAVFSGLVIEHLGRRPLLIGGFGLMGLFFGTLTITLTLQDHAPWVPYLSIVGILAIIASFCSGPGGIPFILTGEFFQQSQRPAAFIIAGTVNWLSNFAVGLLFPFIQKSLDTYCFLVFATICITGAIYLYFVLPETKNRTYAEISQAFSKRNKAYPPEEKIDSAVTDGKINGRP

Row | IC50 | inhibition at 10 µM | Structure (SMILES)
1 | 0.189 µM |  | CCCc1cnc(-c2ccc(C(F)(F)F)cc2)c(-c2ccc(C(=O)O)cc2)n1 [Example 36]
2 | 0.992 µM |  | CCCCc1cnc(-c2ccc(C(F)(F)F)c(OC)c2)c(-c2ccc(C(=O)O)cc2)n1 [Example 23]
3 | 0.483 µM |  | CCCCc1cnc(-c2ccc(C#N)cc2)c(-c2ccc(C(=O)O)cc2)n1 [Example 9]
4 | 0.052 µM |  | COc1ccc(-c2ncc(CC(C)C)cc2-c2ccc(C(=O)O)cc2)cc1 [Example 58]
5 | 0.501 µM |  | COCCOCCCc1cnc(-c2ccc(OC)cc2)c(-c2ccc(C(=O)O)cc2)c1 [Example 119]
6 | 0.0946 µM |  | CCCCc1cnc(-c2cc(Cl)c(OC)c(Cl)c2)c(-c2ccc(C(=O)O)cc2)n1 [Example 65]
7 | 0.344 µM |  | COc1ccc(-c2ncc(C(C)C)cc2-c2ccc(C(=O)O)cc2)cc1 [Example 57]
8 | 0.0576 µM |  | COCCCc1cnc(-c2cc(F)c(OC)c(F)c2)c(-c2ccc(CCC(=O)O)cc2)c1 [Example 95]
9 |  | 5% | CCCCc1cnc(-c2ccc(OC)c(C(=O)O)c2)c(-c2ccc(C(=O)O)cc2)n1 [Example 15]
10 | 0.313 µM |  | CCOCCc1cnc(-c2cc(F)c(OC)c(F)c2)c(-c2ccc(C(=O)O)c(C)c2)n1 [Example 133]
11 | 0.0589 µM |  | COCCCCc1cnc(-c2ccc(OC)cc2)c(-c2ccc(C(=O)O)cc2)c1 [Example 123]
12 | 0.184 µM |  | CCCCc1cnc(-c2ccc(OC)cc2)c(-c2ccc(CCC(=O)O)c(F)c2)n1 [Example 93]
13 | 0.082 µM |  | CCCCCCc1cnc(-c2ccc(OC)cc2)c(-c2ccc(C(=O)O)cc2)c1 [Example 100]
14 | 0.134 µM |  | CCCCc1cnc(-c2ccc(OC)cc2F)c(-c2ccc(C(=O)O)cc2)n1 [Example 3]
15 | 0.0795 µM |  | COCCCc1cnc(-c2cc(F)c(OC)c(F)c2)c(-c2ccc(CCC(=O)O)cc2)n1 [Example 97]
16 | 0.499 µM |  | CCOCCc1cnc(-c2ccc(OC)cc2)c(-c2ccc(C(=O)O)c(Cl)c2)c1 [Example 138]
17 | 0.124 µM |  | CCCCc1cnc(-c2ccc(C3CC3)cc2)c(-c2ccc(C(=O)O)cc2)n1 [Example 34]
18 | 0.0605 µM |  | COc1c(F)cc(-c2ncc(CC(C)C)nc2-c2ccc(C(=O)O)cc2)cc1F [Example 98]
19 | 0.0521 µM |  | COCCCCc1cnc(-c2cc(F)c(OC)c(F)c2)c(-c2ccc(C(=O)O)c(C)c2)c1 [Example 130]
20 | 0.0807 µM |  | COCCCCc1cnc(-c2cc(F)c(OC)c(F)c2)c(-c2ccc(CCC(=O)O)cc2)n1 [Example 148]

Row | IC50 | inhibition at 10 µM | Structure (SMILES)
21 |  | 45% | COc1ccc(-c2ncc(C3CCOCC3)cc2-c2ccc(C(=O)O)cc2)cc1 [Example 60]
22 | 0.946 µM |  | CCCCc1cnc(-c2ccc(OC)cc2C)c(-c2ccc(C(=O)O)cc2)n1 [Example 2]
23 | 0.453 µM |  | COc1ccc(-c2ncc(CCc3ccccc3)cc2-c2ccc(C(=O)O)cc2)cc1 [Example 105]
24 | 0.102 µM |  | CCCCc1cnc(-c2cc(F)c(OC)c(F)c2)c(-c2ccc(CCC(=O)O)cc2)n1 [Example 153]
25 | 0.0684 µM |  | COCCCc1cnc(-c2ccc(OC)cc2)c(-c2ccc(C(=O)O)c(C)c2)c1 [Example 116, 4-(2-(4-methoxyphenyl)-5-(3-methoxypropyl)pyridin-3-yl)-2-methylbenzoic Acid]
26 | 0.856 µM |  | CCCCc1cnc(-c2ccc(OC)cc2)c(-c2cc(F)c(C(=O)O)c(F)c2)n1 [Example 69]
27 | 0.119 µM |  | COCCCCc1cnc(-c2cc(F)c(OC)c(F)c2)c(-c2ccc(C(=O)O)cc2)n1 [Example 35]
28 | 0.201 µM |  | CCCCc1cnc(-c2ccc3c(c2)CCCO3)c(-c2ccc(C(=O)O)cc2)n1 [Example 49]
29 | 3.99 µM |  | CCCCc1cnc(-c2ccc(C(C)(C)C)cc2)c(-c2ccc(C(=O)O)cc2)n1 [Example 55]
30 | 5.59 µM |  | COc1ccc(-c2ncc(CCCO)cc2-c2ccc(C(=O)O)cc2)cc1 [Example 61]
31 | 0.0688 µM |  | COCCCCc1cnc(-c2ccc(OC)cc2)c(-c2ccc(CCC(=O)O)cc2)c1 [Example 127]
32 | 2.21 µM |  | COCc1cnc(-c2ccc(OC)cc2)c(-c2ccc(C(=O)O)cc2)c1 [Example 78]
33 | 0.229 µM |  | COCCCCc1cnc(-c2ccc(OC)cc2)c(-c2ccc(C(=O)O)c(Cl)c2)c1 [Example 125]
34 | 0.0514 µM |  | COc1c(F)cc(-c2ncc(CC(C)C)cc2-c2ccc(C(=O)O)cc2)cc1F [Example 99]
35 | 0.0613 µM |  | COCCCCc1cnc(-c2cc(F)c(OC)c(F)c2)c(-c2ccc(C(=O)O)c(C)c2)n1 [Example 135]
36 |  | 10% | CCCCNC(=O)c1cnc(-c2ccc(OC)cc2)c(-c2ccc(C(=O)O)cc2)c1 [Example 76, 4-(5-(butylcarbamoyl)-2-(4-methoxyphenyl)pyridin-3-yl)benzoic Acid Hydrochloride]
37 | 0.0713 µM |  | CCOCCc1cnc(-c2cc(F)c(OC)c(F)c2)c(-c2ccc(C(=O)O)cc2)c1 [Example 140]
38 | 0.0807 µM |  | CCCCc1cnc(-c2ccc(OC)cc2)c(-c2ccc(C(=O)O)cc2)n1 [Example 1]
39 | 0.0574 µM |  | COc1c(F)cc(-c2ncc(CC(C)C)nc2-c2ccc(C(=O)O)c(C)c2)cc1F [Example 149]
40 | 0.25 µM |  | COCCCCc1cnc(-c2cc(F)c(OC)c(F)c2)c(-c2ccc(C(=O)O)c(Cl)c2)n1 [Example 136]

Row | IC50 | inhibition at 10 µM | Structure (SMILES)
41 | 4.25 µM |  | CCCCc1cnc(-c2ccc(C(F)(F)F)c(C(F)(F)F)c2)c(-c2ccc(C(=O)O)cc2)n1 [Example 28]
42 | 0.134 µM |  | CCCCc1cnc(-c2ccc(C(F)(F)F)c(F)c2)c(-c2ccc(C(=O)O)cc2)n1 [Example 24]
43 | 0.526 µM |  | CCCCc1cnc(-c2ccc(OC)cc2)c(-c2ccc(CC(=O)O)c(F)c2)n1 [Example 72]
44 | 0.0868 µM |  | CCCOCc1cnc(-c2cc(F)c(OC)c(F)c2)c(-c2ccc(C(=O)O)c(C)c2)c1 [Example 147]
45 | 0.0519 µM |  | COCCCCc1cnc(-c2cc(F)c(OC)c(F)c2)c(-c2ccc(CCC(=O)O)cc2)c1 [Example 132]
46 | 0.18 µM |  | CCc1cnc(-c2ccc(OC)cc2)c(-c2ccc(C(=O)O)cc2)c1 [Example 56]
47 | 0.132 µM |  | COc1ccc(-c2ncc(C3CCCC3)cc2-c2ccc(C(=O)O)cc2)cc1 [Example 59]
48 | 0.167 µM |  | CCOCCc1cnc(-c2ccc(OC)cc2)c(-c2ccc(CCC(=O)O)cc2)c1 [Example 139]
49 | 0.102 µM |  | COc1c(F)cc(-c2ncc(CC(C)C)nc2-c2ccc(CCC(=O)O)cc2)cc1F [Example 150]
50 | 0.059 µM |  | CCCCc1cnc(-c2cc(F)c(OC)c(F)c2)c(-c2ccc(C(=O)O)c(C)c2)n1 [Example 152]
51 | 0.0987 µM |  | CCCCc1cnc(-c2cc(F)c(OC)c(Cl)c2)c(-c2ccc(C(=O)O)cc2)n1 [Example 64]
52 | 0.0639 µM |  | CCOCCc1cnc(-c2cc(F)c(OC)c(F)c2)c(-c2ccc(C(=O)O)c(C)c2)c1 [Example 141]
53 | 0.141 µM |  | CCCCc1cnc(-c2ccc(OC)cc2)c(-c2ccc(C(=O)O)c(OC)c2)n1 [Example 6]
54 | 0.127 µM |  | COc1ccc(-c2ncc(CCC(F)(F)F)cc2-c2ccc(C(=O)O)cc2)cc1 [Example 62]
55 | 0.101 µM |  | COCCCc1cnc(-c2ccc(OC)c(F)c2)c(-c2ccc(C(=O)O)cc2)c1 [Example 106]
56 | 0.133 µM |  | CCCCc1cnc(-c2ccc3c(c2)OCCO3)c(-c2ccc(C(=O)O)cc2)n1 [Example 50]
57 | 0.134 µM |  | CCCCc1cnc(-c2ccc(Cl)cc2)c(-c2ccc(C(=O)O)cc2)n1 [Example 31]
58 | 1.79 µM |  | CCCCc1cnc(-c2ccc(CC#N)cc2)c(-c2ccc(C(=O)O)cc2)n1 [Example 87]
59 | 0.865 µM |  | CCCCc1cnc(-c2ccc(OC)cc2)c(-c2ccc(CC(=O)O)cc2)n1 [Example 38]
